In patent US8097774B2, “Cytochrome P450 genes conferring herbicide resistance” (Syngenta Participations AG, priority 2007, dated 2012):
Read-outs that look alike come from different tables or passages of the source.

Columns and labels:
[1] = system: Transgenic progeny plants (T1 or later generations) containing the nsf transgene (vector 17108); test: T1 seed from 17108 events, spray with other HPPD herbicides; conditions: sprayed at 40-80 g/ha rates or higher; evaluated for bleaching and chlorosis
Experimental: T0 transformants containing the nsf transgene (vector 17108) are allowed to set T1 seed, and the seed is harvested. This seed is planted, and the progeny analyzed to identify seedlots that are derived from germline transformed plants. Transgenic progeny plants (T1 or later generations), are analyzed to confirm mesotrione tolerance. […] Plants are evaluated for bleaching, and chlorosis, as described in Example 7.

rice CYP81A6 enzyme = conditions: Pan et al. (2007); cited from earlier work
corn CYP72A1 enzyme = conditions: U.S. Pat. No. 6,380,465, cited from earlier work
[2] = system: CYP76B1 gene in tobacco (Nicotiana tabacum) and Arabidopsis; conditions: cited from earlier work
[3] = system: transformant with vector 17108 (event 17108-A, nsf P450 gene); test: Mesotrione spray on soybean T0 plants, chlorosis rating; format: in vivo, Soybean (Glycine max); conditions: 52.5 g/ha mesotrione
Description: A similar binary vector (17108) was constructed with the corn cytochrome P450 gene ‘nsf’ instead of the CYP72A1 gene (FIG. 4). The nsf gene in this vector was codon optimized for soybean expression (SEQ ID NO:2) based upon the predicted amino acid sequence of the maize gene coding region (SEQ ID NO:1).
(§1) T0 plants were taken from tissue culture to the greenhouse where they are transplanted into saturated soil (Redi-Earth® Plug and Seedling Mix, Sun Gro Horticulture, Bellevue, Wash.) mixed with 1% granular Marathon® (Olympic Horticultural Products, Co., Mainland, Pa.) at 5-10 g/gal Redi-Earth® Mix in 2″ square pots. The plants were covered with humidity domes and placed in a Conviron chamber (Pembina, N. Dak.) with the following environmental conditions: 24° C. day; 18° C. night; 23 hr photoperiod; 80% relative humidity.
(§2) After plants became established in the soil and new growth appeared (˜1-2 weeks), plants were sampled and tested for the presence of desired transgene by Taqman® analysis using probes for P450 (CYP72A1), or promoters (prCMP and prUBq3). All positive plants and several negative plants were transplanted into 4″ square pots containing MetroMix® 380 soil (Sun Gro Horticulture, Bellevue, Wash.). Sierra 17-6-12 slow release fertilizer was incorporated into the soil at the recommended rate. The negative plants serve as controls for the spray experiment. The plants were then relocated into a standard greenhouse to acclimatize (˜1 week). The environmental conditions were: 27° C. day; 21° C. night; 12 hr photoperiod (with ambient light); ambient humidity. After acclimatizing (˜1 week), the plants were ready to be sprayed with the desired herbicides.
The plants from Example 6 were sprayed with mesotrione to determine if they were tolerant to this herbicide. Callisto® (active ingredient mesotrione, Syngenta Crop Protection, Inc., Greensboro, N.C.) was mixed in water and X-77 surfactant (0.25% v/v final concentration). Plants were placed in a DeVries spray chamber (DeVries Manufacturing, Hollandale, Minn.), and the distance from the nozzle to the top of the plants was adjusted to approximately 12 inches. The system was set up so that the boom moved at 2 mph, and delivered 25 gallon fluid per acre. The spray rate was calibrated to spray 52.5 g/ha mesotrione over the top of the plants. Negative T0 transformants (i.e., negative by Taqman® for presence of transgenes), T0 transformants with vector 17107, and one transformant with vector 17108 (event 17108-A), were sprayed in this manner. After spraying, plants were placed in the greenhouse, under the same conditions as described in Example 3 above, and evaluated frequently for symptoms. […] However, over time, leaves greened up on all plants. […]

[4] = system: P450 transgenic explants (transgene PCR+ve transformed plants); test: Tobacco explants on MS agar containing mesotrione; format: in vivo
Description: Plant transformation vectors with the appropriate P450 gene expression cassette are used to transform Agrobacterium tumefaciens LBA4404. Tobacco tissue is subjected to Agrobacterium-mediated transformation using methods well described in the art. Transformed shoots are regenerated from callus resistant to the selection agent (e.g., glufosinate, butafenacil, kanamycin). Shoots are rooted on MS agar containing the selection agent.
(§3) To determine tolerance of P450 transgenic explants (i.e. a leaf plus short segment of stem containing the auxiliary bud), these are placed into MS agar (+3% sucrose) containing various concentrations of mesotrione, from 0.02 to 2 ppm. […] In these particular experiments, only the shoot that develops from the bud is bleached, the leaf on the explanted tissue remains green.
They root normally and are phenotypically indistinguishable from untransformed plants. A sub-set of the transformants is tolerant to concentrations of >0.1 ppm yielding plants looking normal and rooting well in the presence of herbicide. Some of the transformed plants can be initially bleached when subjected to the herbicide at the said higher concentrations, but on prolonged exposure they progressively “green up” and “recover”. […]

[5] = system: untransformed explants (wild-type tobacco); test: Tobacco explants on MS agar containing mesotrione; format: in vivo; conditions: 0.02 ppm mesotrione in MS agar (+3% sucrose); no recovery following prolonged exposure
Description: as §3

[6] = system: Negative T0 transformants (negative by Taqman for presence of transgenes); test: Mesotrione spray on soybean T0 plants, chlorosis rating; format: in vivo, Soybean (Glycine max); conditions: 52.5 g/ha mesotrione, 22 days after the spray
Experimental: as §1, §2
The plants from Example 6 were sprayed with mesotrione to determine if they were tolerant to this herbicide. Callisto® (active ingredient mesotrione, Syngenta Crop Protection, Inc., Greensboro, N.C.) was mixed in water and X-77 surfactant (0.25% v/v final concentration). Plants were placed in a DeVries spray chamber (DeVries Manufacturing, Hollandale, Minn.), and the distance from the nozzle to the top of the plants was adjusted to approximately 12 inches. The system was set up so that the boom moved at 2 mph, and delivered 25 gallon fluid per acre. The spray rate was calibrated to spray 52.5 g/ha mesotrione over the top of the plants. Negative T0 transformants (i.e., negative by Taqman® for presence of transgenes), T0 transformants with vector 17107, and one transformant with vector 17108 (event 17108-A), were sprayed in this manner. After spraying, plants were placed in the greenhouse, under the same conditions as described in Example 3 above, and evaluated frequently for symptoms. […] However, over time, leaves greened up on all plants. New growth developed as partially bleached, or chlorotic, and the leaves that initially were bleached also greened up. […] At 22 days after the spray, the plants were rated for symptoms on the leaves that were initially bleached. […]

[7] = system: All plants that were sprayed (negative T0 transformants, vector 17107, event 17108-A); test: Mesotrione spray on soybean T0 plants, early symptoms on all sprayed plants; format: in vivo, Soybean (Glycine max); conditions: 52.5 g/ha mesotrione over the top
Experimental: as §1
as §2, with “The negative plants serve as controls for the spray experiment. The plants were then relocated into a standard greenhouse to acclimatize (˜1 week). The environmental conditions were: 27° C. day; 21° C. night; 12 hr photoperiod (with ambient light); ambient humidity.” left out
The plants from Example 6 were sprayed with mesotrione to determine if they were tolerant to this herbicide. […] After spraying, plants were placed in the greenhouse, under the same conditions as described in Example 3 above, and evaluated frequently for symptoms. […]

corn plants = test: Mesotrione levels in treated corn plants; format: in vivo; conditions: over time; P450 based degradation mechanism
[8] = system: T0 transformants with vector 17107 (corn CYP72A1 cytochrome P450 gene); test: Mesotrione spray on soybean T0 plants, chlorosis rating; format: in vivo, Soybean (Glycine max); conditions: 17107 positive, 52.5 g/ha mesotrione, 22 days after the spray
Description: A binary vector (17107) for dicot (soybean) transformation was constructed, with the Arabidopsis UBQ3 promoter driving the corn CYP72A1 cytochrome P450 gene, followed by NOS terminator (FIG. 3). The gene was codon optimized for soybean expression based upon the predicted amino acid sequence of the maize gene coding region. The amino acid sequence of the protein encoded by the CYP72A1 gene is provided in SEQ ID NO:3, and the nucleotide sequence of the optimized CYP72A1 gene in this binary transformation vector is provided in SEQ ID NO:4. The transformation vector also contains two PAT gene cassettes (one with the 35S promoter and one with the CMP promoter, and both PAT genes are followed by the nos terminator) for glufosinate based selection during the transformation process.
as §1, §2
The plants from Example 6 were sprayed with mesotrione to determine if they were tolerant to this herbicide. Callisto® (active ingredient mesotrione, Syngenta Crop Protection, Inc., Greensboro, N.C.) was mixed in water and X-77 surfactant (0.25% v/v final concentration). Plants were placed in a DeVries spray chamber (DeVries Manufacturing, Hollandale, Minn.), and the distance from the nozzle to the top of the plants was adjusted to approximately 12 inches. The system was set up so that the boom moved at 2 mph, and delivered 25 gallon fluid per acre. The spray rate was calibrated to spray 52.5 g/ha mesotrione over the top of the plants. Negative T0 transformants (i.e., negative by Taqman® for presence of transgenes), T0 transformants with vector 17107, and one transformant with vector 17108 (event 17108-A), were sprayed in this manner. After spraying, plants were placed in the greenhouse, under the same conditions as described in Example 3 above, and evaluated frequently for symptoms. […] However, over time, leaves greened up on all plants. New growth developed as partially bleached, or chlorotic, and the leaves that initially were bleached also greened up. […] At 22 days after the spray, the plants were rated for symptoms on the leaves that were initially bleached. Visible chlorosis was only seen on the leaves immediately above the leaves that were exposed during the spray (i.e., the leaves that had necrotic spots), and in some events, on leaves in sideshoots. The partial chlorosis was evident as light green patches, and often as light green (almost yellow) edges on the leaves.

[9] = heterologous expression of CYP76B1, Didierjean et al. (2002)
[10] = event 17108-A, 17108 positive, 22 days after the spray

CS(=O)(=O)c1ccc(C(=O)C2=C(Sc3ccccc3)C3CCC(C3)C2=O)c(Cl)c1 (stereo not shown) [Benzobicyclon]
tolerance when sprayed [1]: display tolerance

Cc1ccc(C(=O)COc2c(C(=O)c3ccc(Cl)c(C)c3Cl)c(C)nn2C)cc1 [Benzofenap]
tolerance when sprayed [1]: display tolerance

CS(=O)(=O)c1cc(Cl)ccc1C(=O)c1cnoc1C1CC1 [Isoxachlortole]
tolerance when sprayed [1]: display tolerance

Cc1nn(C)c(O)c1C(=O)c1ccc(C(F)(F)F)cc1S(C)(=O)=O [Pyrasulfatole]
tolerance when sprayed [1]: display tolerance

CS(=O)(=O)c1ccc(C(=O)C2C(=O)CCCC2=O)c(Cl)c1 [Sulcotrione]
tolerance when sprayed [1]: display tolerance

Cc1c(C(=O)c2cnn(C)c2O)ccc(S(C)(=O)=O)c1C1=NOCC1 [Topramezone]
tolerance when sprayed [1]: display tolerance

CC(C)N1C(=O)c2ccccc2NS1(=O)=O [bentazon]
ability of the enzyme to degrade the herbicide (rice CYP81A6 enzyme): able to degrade
ability of the enzyme to degrade the herbicide (corn CYP72A1 enzyme): degrade

COc1cc(Cl)nc(NC(=O)NS(=O)(=O)c2ccccc2C(=O)O)n1 [chlorimuron]
ability of the enzyme to degrade the herbicide (corn CYP72A1 enzyme): degrade

Cc1ccc(NC(=O)N(C)C)cc1Cl [chlortoluron]
ability of the enzyme to degrade the herbicide (corn CYP72A1 enzyme): degrade
increase in tolerance [2, 9]: 10 fold

CC(C)c1ccc(NC(=O)N(C)C)cc1 [isoproturon]
increase in tolerance ([2]; in vivo): 10 fold

CON(C)C(=O)Nc1ccc(Cl)c(Cl)c1 [linuron]
level of tolerance [2, 9]: 20 fold

CCOC(=O)CC(SP(=S)(OC)OC)C(=O)OCC (stereo not shown) [malathion]
ability of these plants to degrade the insecticide (corn CYP72A1 enzyme; plants): able to degrade

CS(=O)(=O)c1ccc(C(=O)C2C(=O)CCCC2=O)c([N+](=O)[O-])c1 [mesotrione]
recovery from the mesotrione injury ([3]; event 17108-A only): fully recover
Number of leaves with <50% chlorisis [3, 10]: 0
Number of leaves with ≧50% chlorosis [3, 10]: 0
greening of bleached leaves compared with events with vector 17107 ([3]; event 17108-A, 1 week after spray): turned green faster
bleaching at the level which causes symptoms on wild-type tobacco ([4]; a number of the transgene PCR+ve transformed plants): no indication of bleaching
concentration tolerated, plants looking normal and rooting well ([4]; a sub-set of the transformants, mesotrione in MS agar): > 0.1 ppm
bleaching of explants [5]: fully bleached
Number of leaves with <50% chlorisis ([6]; event 6D032-A #4, Negative): 1
Number of leaves with ≧50% chlorosis ([6]; event 6D032-A #4, Negative): 1
Number of leaves with <50% chlorisis ([6]; event 6D032-A #14, Negative): 0
Number of leaves with ≧50% chlorosis ([6]; event 6D032-A #14, Negative): 2
symptoms on leaves exposed at the time of herbicide application [7]: developed necrotic symptoms on small portions of the leaves
bleaching of new growth that emerged from the plants ([7]; leaves greened up over time): completely bleached
mesotrione levels in treated corn plants (corn plants): decrease over time
Number of leaves with <50% chlorisis ([8]; event 17107-A): 0
Number of leaves with ≧50% chlorosis ([8]; event 17107-A): 2
Number of leaves with <50% chlorisis ([8]; event 17107-B): 2
Number of leaves with ≧50% chlorosis ([8]; event 17107-B): 2
Number of leaves with <50% chlorisis ([8]; event 17107-C): 1
Number of leaves with ≧50% chlorosis ([8]; event 17107-C): 1
Number of leaves with <50% chlorisis ([8]; event 17107-D): 2
Number of leaves with ≧50% chlorosis ([8]; event 17107-D): 3
Number of leaves with <50% chlorisis ([8]; event 17107-E): 1
Number of leaves with ≧50% chlorosis ([8]; event 17107-E): 2
Number of leaves with <50% chlorisis ([8]; event 17107-F): 2
Number of leaves with ≧50% chlorosis ([8]; event 17107-F): 1
Number of leaves with <50% chlorisis ([8]; event 17107-G): 2
Number of leaves with ≧50% chlorosis ([8]; event 17107-G): 1
Number of leaves with <50% chlorisis ([8]; event 17107-H): 4
Number of leaves with ≧50% chlorosis ([8]; event 17107-H): 2
Number of leaves with <50% chlorisis ([8]; event 17107-I): 1
Number of leaves with ≧50% chlorosis ([8]; event 17107-I): 1
